Source: patent publication US10280169B2, “Biaryl bruton's tyrosine kinase inhibitors” (BIOGEN MA INC., priority 2013, dated 2019)

Legend:
BTK = target: T1, BTK (Homo sapiens, UniProt Q06187); assay: In vitro BTK kinase assay: BTK-POLYGAT-LS assay; type: biochemical; settings: 10 uM ATP, read-out: IC50 (10 uMATP)
T1 construct: purchased Upstate 14-552

pBTK = target: T2, pBTK (Homo sapiens, UniProt Q06187); assay: In vitro PD assay in whole blood (pBTK assay); type: cell-based; settings: 30 min at 37° C.
T2 construct: Heparinized venous blood was purchased from Bioreclamation, Inc. or SeraCare Life Sciences; tissue Bioreclamation, Inc. or SeraCare Life Sciences; host or cells: heparinized venous whole blood
T2 sequence (Q06187 whole entry): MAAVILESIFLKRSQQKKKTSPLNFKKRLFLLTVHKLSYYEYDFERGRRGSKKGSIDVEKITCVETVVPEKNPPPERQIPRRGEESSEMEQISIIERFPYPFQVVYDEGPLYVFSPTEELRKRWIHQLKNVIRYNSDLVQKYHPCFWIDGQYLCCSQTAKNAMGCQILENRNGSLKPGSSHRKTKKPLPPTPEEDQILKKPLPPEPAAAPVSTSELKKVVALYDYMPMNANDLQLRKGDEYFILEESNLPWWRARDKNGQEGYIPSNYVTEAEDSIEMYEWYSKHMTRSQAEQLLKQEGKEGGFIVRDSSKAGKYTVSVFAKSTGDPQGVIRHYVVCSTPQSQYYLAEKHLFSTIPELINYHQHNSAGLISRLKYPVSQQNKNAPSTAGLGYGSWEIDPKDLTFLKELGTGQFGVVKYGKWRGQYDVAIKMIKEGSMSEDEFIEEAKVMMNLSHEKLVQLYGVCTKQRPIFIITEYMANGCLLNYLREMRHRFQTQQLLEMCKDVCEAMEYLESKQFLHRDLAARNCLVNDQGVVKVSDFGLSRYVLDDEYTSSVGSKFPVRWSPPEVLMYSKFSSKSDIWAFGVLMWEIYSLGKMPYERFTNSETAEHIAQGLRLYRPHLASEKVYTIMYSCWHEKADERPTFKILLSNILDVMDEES
Protocol: Heparinized venous blood was purchased from Bioreclamation, Inc. or SeraCare Life Sciences and shipped overnight. Whole blood was aliquoted into 96-well plate and “spiked” with serial dilutions of test compound in DMSO or with DMSO without drug. The final concentration of DMSO in all wells was 0.1%. The plate was incubated at 37° C. for 30 min. Lysis buffer containing protease and phosphatase inhibitors was added to the drug-containing samples and one of the DMSO-only samples (+PPi, high control), while lysis buffer containing protease inhibitors was added to the other DMSO-only samples (−PPi, low control). All of the lysed whole blood samples were subjected to the total BTK capture and phosphotyrosine detection method described in Example 30. ECL values were graphed in Prism and a best-fit curve with restrictions on the maximum and minimum defined by the +PPi high and −PPi low controls was used to estimate the test compound concentration that results in 50% inhibition of ECL signal by interpolation.
In some instances where a compound tested has activity “D”, other structurally similar compounds beyond the measurable limits of the assay are not included in Table 2.

T1 sequence (Q06187 whole entry): as above

SMILES	IC50 (BTK) [nM]	IC50 (pBTK) [nM]
Cc1cc(-c2ncnc3[nH]c(-c4ccc(C(=O)N5CCOCC5)cc4)cc23)ccc1CNC(=O)c1cnc(C(C)(C)C)s1 [Example I-20]	< 10	< 500
O=C(N[C@H]1CCCc2cc(-c3ncnc4[nH]ncc34)ccc21)c1cc2c(s1)CCCC2 [Example I-87, (S)—N-(6-(1H-Pyrazolo[3,4-d]pyrimidin-4-yl)-1,2,3,4-tetrahydronaphthalen-1-yl)-4,5,6,7-tetrahydrobenzo[b]thiophene-2-carboxamide]	< 10	1500 to 10000
Cc1cc(-c2ncnc3cc[nH]c23)ccc1CNC(=O)c1cc2c(s1)CCCC2 [Example I-116, N-(2-methyl-4-(5H-pyrrolo[3,2-d]pyrimidin-4-yl)benzyl)-4,5,6,7-tetrahydrobenzo[b]thiophene-2-carboxamide]	< 10	1500 to 10000
Cc1cc(-c2ncnc3nc(N4CCN(C)CC4)[nH]c23)ccc1CNC(=O)c1cnc(C(C)(C)C)s1 [Example I-47, 2-(tert-butyl)-N-(2-methyl-4-(8-(4-methylpiperazin-1-yl)-7H-purin-6-yl)benzyl)thiazole-5-carboxamide]	< 10	< 500
Cn1cc(-c2cc3c(-c4ccc5c(c4)CCCC5NC(=O)c4cc5c(s4)CCOC5)ncnc3[nH]2)cn1 (stereo not drawn) [Example I-35, N-(6-(6-(1-methyl-1H-pyrazol-4-yl)-7H-pyrrolo[2,3-d]pyrimidin-4-yl)-1,2,3,4-tetrahydronaphthalen-1-yl)-6,7-dihydro-4H-thieno[3,2-c]pyran-2-carboxamide]	< 10	500 to 1500
Cc1cc(-c2ncnc3[nH]c(-c4cnn(C)c4)cc23)ccc1CNC(=O)c1cnc(C(C)(C)C)s1 [Example I-26, 2-(tert-butyl)-N-(2-methyl-4-(6-(1-methyl-1H-pyrazol-4-yl)-7H-pyrrolo[2,3-d]pyrimidin-4-yl)benzyl)thiazole-5-carboxamide]	< 10	< 500
CCn1cc(-c2cc3ncnc(-c4ccc(CNC(=O)c5ncc(C(C)(C)C)s5)c(C)c4)c3[nH]2)cn1 [Example I-40, 5-(tert-butyl)-N-(4-(6-(1-ethyl-1H-pyrazol-4-yl)-5H-pyrrolo[3,2-d]pyrimidin-4-yl)-2-methylbenzyl)thiazole-2-carboxamide]	< 10	< 500
CC(C)(C)c1ncc(C(=O)NC(CO)c2ccc(-c3ncnc4[nH]c(C5=CCS(=O)(=O)CC5)cc34)cc2)s1 (stereo not drawn) [Example I-30, 2-(tert-butyl)-N-(1-(4-(6-(1,1-dioxido-3,6-dihydro-2H-thiopyran-4-yl)-7H-pyrrolo[2,3-d]pyrimidin-4-yl)phenyl)-2-hydroxyethyl)thiazole-5-carboxamide]	< 10	1500 to 10000
O=C(NC1CCCc2cc(-c3ncnc4[nH]ccc34)ccc21)c1cc2c(s1)CCCC2 (stereo not drawn) [Example I-16, N-(6-(7H-pyrrolo[2,3-d]pyrimidin-4-yl)-1,2,3,4-tetrahydronaphthalen-1-yl)-4,5,6,7-tetrahydrobenzo[b]thiophene-2-carboxamide]	10 to 99	1500 to 10000
Cc1cc(-c2ncnc3[nH]ccc23)ccc1CNC(=O)c1ccc(C(C)(C)C)cn1 [Example I-1, 5-(tert-butyl)-N-(2-methyl-4-(7H-pyrrolo[2,3-d]pyrimidin-4-yl)benzyl)picolinamide]	< 10	1500 to 10000
Cc1cc(-c2ncnc3cc[nH]c23)ccc1CNC(=O)c1cnc(C(C)(C)C)s1 [Example I-115, 2-(tert-butyl)-N-(2-methyl-4-(5H-pyrrolo[3,2-d]pyrimidin-4-yl)benzyl)thiazole-5-carboxamide]	< 10	500 to 1500
Cc1cc(-c2ncnc3nc(N4CCC(N(C)C)CC4)[nH]c23)ccc1CNC(=O)c1cnc(C(C)(C)C)s1 [Example I-49, 2-(tert-butyl)-N-(4-(8-(4-(dimethylamino)piperidin-1-yl)-7H-purin-6-yl)-2-methylbenzyl)thiazole-5-carboxamide]	< 10	500 to 1500
Cc1cc(-c2ncnc3[nH]c(-c4cnn(C)c4)cc23)ccc1C(C)NC(=O)c1cnc(C(C)(C)C)s1 (stereo not drawn) [Example I-112, 2-(tert-butyl)-N-(1-(2-methyl-4-(6-(1-methyl-1H-pyrazol-4-yl)-7H-pyrrolo[2,3-d]pyrimidin-4-yl)phenyl)ethyl)thiazole-5-carboxamide]	< 10	< 500
Cc1cc(-c2ncnc3[nH]c(-c4cnn(C)c4)cc23)ccc1C(CO)NC(=O)c1cnc(C(C)(C)C)s1 (stereo not drawn) [Example I-31, 2-(tert-butyl)-N-(2-hydroxy-1-(2-methyl-4-(6-(1-methyl-1H-pyrazol-4-yl)-7H-pyrrolo[2,3-d]pyrimidin-4-yl)phenyl)ethyl)thiazole-5-carboxamide]	< 10	500 to 1500
Cc1cc(-c2ncnc3[nH]c(C4=CCN(C(=O)N(C)C)CC4)cc23)ccc1CNC(=O)c1cnc(C(C)(C)C)s1 [Example I-19, 2-(tert-butyl)-N-(4-(6-(1-(dimethylcarbamoyl)-1,2,3,6-tetrahydropyridin-4-yl)-7H-pyrrolo[2,3-d]pyrimidin-4-yl)-2-methylbenzyl)thiazole-5-carboxamide]	< 10	< 500
CC(C)(C)c1csc(C(=O)NC2CCCc3cc(-c4ncnc5[nH]ncc45)ccc32)n1 (stereo in doubt) [Example I-100, (R)—N-(6-(1H-pyrazolo[3,4-d]pyrimidin-4-yl)-1,2,3,4-tetrahydronaphthalen-1-yl)-4-(tert-butyl)thiazole-2-carboxamide]	< 10	1500 to 10000
Cc1cc(-c2ncnc3nc(N4CCOCC4)[nH]c23)ccc1CNC(=O)c1cnc(C(C)(C)C)s1 [Example I-48, 2-(tert-butyl)-N-(2-methyl-4-(8-morpholino-7H-purin-6-yl)benzyl)thiazole-5-carboxamide]	< 10	< 500
Cc1cc(-c2ncnc3cc(-c4cn(C)nc4C)[nH]c23)ccc1CNC(=O)c1cnc(C(C)(C)C)s1 [Example I-39, 2-(tert-butyl)-N-(4-(6-(1,3-dimethyl-1H-pyrazol-4-yl)-5H-pyrrolo[3,2-d]pyrimidin-4-yl)-2-methylbenzyl)thiazole-5-carboxamide]	< 10	< 500
Cc1cc(-c2ncnc3cc(C4=CCS(=O)(=O)CC4)[nH]c23)ccc1CNC(=O)c1cnc(C(C)(C)C)s1 [Example I-22, 2-(tert-butyl)-N-(4-(6-(1,1-dioxido-3,6-dihydro-2H-thiopyran-4-yl)-5H-pyrrolo[3,2-d]pyrimidin-4-yl)-2-methylbenzyl)thiazole-5-carboxamide]	< 10	< 500
Cc1cc(-c2ncnc3cc(-c4cnn(C)c4)[nH]c23)ccc1CNC(=O)N1CC(OC(C)C)C1 [Example I-43, 3-isopropoxy-N-(2-methyl-4-(6-(1-methyl-1H-pyrazol-4-yl)-5H-pyrrolo[3,2-d]pyrimidin-4-yl)benzyl)azetidine-1-carboxamide]	< 10	500 to 1500
Cn1cc(-c2cc3c(-c4ccc5c(c4)CCCC5NC(=O)c4cnc(C(C)(C)C)s4)ncnc3[nH]2)cn1 (stereo not drawn) [Example I-34, 2-(tert-butyl)-N-(6-(6-(1-methyl-1H-pyrazol-4-yl)-7H-pyrrolo[2,3-d]pyrimidin-4-yl)-1,2,3,4-tetrahydronaphthalen-1-yl)thiazole-5-carboxamide]	< 10	< 500
Cn1cc(-c2cc3c(-c4ccc5c(c4)CCCCC5NC(=O)N4CCC(C(C)(C)C)C4)ncnc3[nH]2)cn1 (stereo not drawn) [Example I-162, 3-(tert-butyl)-N-(2-(6-(1-methyl-1H-pyrazol-4-yl)-7H-pyrrolo[2,3-d]pyrimidin-4-yl)-6,7,8,9-tetrahydro-5H-benzo[7]annulen-5-yl)pyrrolidine-1-carboxamide]	< 10	–
Cc1cc(-c2ncnc3nc(N4CCC(C(=O)O)C4)[nH]c23)ccc1CNC(=O)c1cnc(C(C)(C)C)s1 (stereo not drawn) [Example I-51, 1-(6-(4-((2-(tert-butyl)thiazole-5-carboxamido)methyl)-3-methylphenyl)-7H-purin-8-yl)pyrrolidine-3-carboxylic acid]	< 10	–
Cc1cc(CNC(=O)c2ccc(C(C)(C)C)cc2)ccc1-c1ncnc2[nH]ccc12 [Compound I-148]	1000 to 10000	–
Cc1cc(-c2ncnc3cc(-c4cnn(C)c4)n(C)c23)ccc1CNC(=O)c1cnc(C(C)(C)C)s1 [Example I-38, 2-(tert-butyl)-N-(2-methyl-4-(5-methyl-6-(1-methyl-1H-pyrazol-4-yl)-5H-pyrrolo[3,2-d]pyrimidin-4-yl)benzyl)thiazole-5-carboxamide]	< 10	–
O=C(NCc1ccc(-c2ncnc3[nH]ccc23)cc1)c1cc2c(cn1)CCCC2 [Example I-57, N-(4-(7H-pyrrolo[2,3-d]pyrimidin-4-yl)benzyl)-5,6,7,8-tetrahydroisoquinoline-3-carboxamide]	1000 to 10000	–
CC(C)(C)c1ccc(C(=O)NC2CCCc3cc(-c4ncnc5[nH]ncc45)ccc32)nc1 (stereo not drawn) [Example I-131, N-(6-(1H-pyrazolo[3,4-d]pyrimidin-4-yl)-1,2,3,4-tetrahydronaphthalen-1-yl)-5-(tert-butyl)picolinamide]	100 to 999	–
